The results in this text go back to patent US20100022491A1, “4-HYDROXY-2-OXO-2,3-DIHYDRO-1,3-BENZOTHIAZOL-7YL COMPOUNDS FOR MODULATION OF B2-ADRENORECEPTOR ACTIVITY” (ASTRAZENECA AB, priority 2006, published 2010).

The test concerns the target T1, Adrenergic β2 (Homo sapiens, UniProt P07550).
T1 construct: Adherent H292 cells were removed from tissue culture flasks; endogenous in cells; host or cells: H292 cells
Kind of test: Adrenergic β2 mediated cAMP production in H292 cells. The following applies: for EC50: read-out: β2 pEC50 (converted); for β2 Int Act: Intrinsic Activity as a fraction relative to the maximum activity determined for formoterol. Type of test: cell-based. Here is the method:
Adrenergic β2 mediated cAMP production
H292 cells were grown in 225 cm2 flasks incubator at 37° C., 5% CO2 in RPMI medium containing, 10% (v/v) FBS (foetal bovine serum) and 2 mM L-glutamine.
Adherent H292 cells were removed from tissue culture flasks by treatment with Accutase™ cell detachment solution for 15 minutes. Flasks were incubated for 15 minutes in a humidified incubator at 37° C., 5% CO2. Detached cells were re-suspended in RPMI media (containing 10% (v/v) FBS and 2 mM L-glutamine) at 0.05×10^6 cells per mL. 5000 cells in 100 μL were added to each well of a tissue-culture-treated 96-well plate and the cells incubated overnight in a humidified incubator at 37° C., 5% CO2. The culture media was removed and cells were washed twice with 100 μL assay buffer and replaced with 50 μL assay buffer (HBSS solution containing 10 mM HEPES pH7.4 and 5 mM glucose). Cells were rested at room temperature for 20 minutes after which time 25 μL of rolipram (1.2 mM made up in assay buffer containing 2.4% (v/v) dimethylsulphoxide) was added. Cells were incubated with rolipram for 10 minutes after which time test compounds were added and the cells were incubated for 60 minutes at room temperature. The final rolipram concentration in the assay was 300 μM and final vehicle concentration was 1.6% (v/v) dimethylsulphoxide. The reaction was stopped by removing supernatants, washing once with 100 μL assay buffer and replacing with 50 μL lysis buffer. The cell monolayer was frozen at −80° C. for 30 minutes (or overnight).
The concentration of cAMP (cyclic adenosine monophosphate) in the cell lysate was determined using AlphaScreen™ methodology. The frozen cell plate was thawed for 20 minutes on a plate shaker then 10 μL of the cell lysate was transferred to a 96-well white plate. 40 μL of mixed AlphaScreen™ detection beads pre-incubated with biotinylated cAMP, was added to each well and the plate incubated at room temperature for 10 hours in the dark. The AlphaScreen™ signal was measured using an EnVision spectrophotometer (Perkin-Elmer Inc.) with the recommended manufacturer's settings. cAMP concentrations were determined by reference to a calibration curve determined in the same experiment using standard cAMP concentrations. Concentration response curves for agonists were constructed and data was fitted to a four parameter logistic equation to determine both the pEC50 and Intrinsic Activity. Intrinsic Activity was expressed as a fraction relative to the maximum activity determined for formoterol in each experiment.
Background: cAMP levels reflect the balance of adenylyl cyclase and phosphodiesterase activity.

[1] abbreviates: H292 cells, cAMP by AlphaScreen, 60 minutes at room temperature, rolipram 300 μM.

Counter-ions that a name gives are not always drawn.

T1 sequence (P07550 whole entry): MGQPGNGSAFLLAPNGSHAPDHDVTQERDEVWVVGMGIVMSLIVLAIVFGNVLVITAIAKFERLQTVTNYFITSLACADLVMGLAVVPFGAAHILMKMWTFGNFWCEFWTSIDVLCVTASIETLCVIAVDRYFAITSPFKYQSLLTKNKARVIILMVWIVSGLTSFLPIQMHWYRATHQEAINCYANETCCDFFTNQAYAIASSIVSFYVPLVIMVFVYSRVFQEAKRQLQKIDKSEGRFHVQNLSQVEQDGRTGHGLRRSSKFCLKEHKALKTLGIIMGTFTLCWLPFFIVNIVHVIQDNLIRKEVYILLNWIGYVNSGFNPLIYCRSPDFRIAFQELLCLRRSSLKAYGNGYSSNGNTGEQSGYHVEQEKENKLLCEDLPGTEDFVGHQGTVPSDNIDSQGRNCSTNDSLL

Consider `O=C(CCNCCc1ccccc1)N(CCNCCc1ccc(O)c2[nH]c(=O)sc12)C1CCCC1` [Example 2, N-Cyclopentyl-N-(2-{[2-(4-hydroxy-2-oxo-2,3-dihydro-1,3-benzothiazol-7-yl)ethyl]amino}ethyl)-N^3-(2-phenylethyl)-β-alaninamide bis-trifluoroacetic acid salt], for which the “β2 Int Act” value is on record as 1.04. In addition, the EC50 under setting [1] was 3.16 nM.

Regarding `CC(C)(C)CN(CCNCCc1ccc(O)c2[nH]c(=O)sc12)C(=O)CCNCCc1ccccc1` [Example 6, N-(2,2-Dimethylpropyl)-N-(2-{[2-(4-hydroxy-2-oxo-2,3-dihydro-1,3-benzothiazol-7-yl)ethyl]amino}ethyl)-N^3-(2-phenylethyl)-β-alaninamide bis-trifluoroacetic acid salt], the “β2 Int Act” value came out at 0.89. The EC50 under setting [1] is 2 nM.

For the compound `CC(C)(C)CN(CCNCCc1ccc(O)c2[nH]c(=O)sc12)C(=O)CCNCCc1cccc(Cl)c1` [Example 7, N^3-[2-(3-Chlorophenyl)ethyl]-N-(2,2-dimethylpropyl)-N-(2-{[2-(4-hydroxy-2-oxo-2,3-dihydro-1,3-benzothiazol-7-yl)ethyl]amino}ethyl)-β-alaninamide bis-trifluoroacetic acid salt], the “β2 Int Act” value was determined as 0.68. In addition, the EC50 under setting [1] was 3.98 nM.

Regarding `CC(C)(C)CN(CCNCCc1ccc(O)c2[nH]c(=O)sc12)C(=O)CCNCCc1ccc(Cl)cc1` [Example 8, N^3-[2-(4-Chlorophenyl)ethyl]-N-(2,2-dimethylpropyl)-N-(2-{[2-(4-hydroxy-2-oxo-2,3-dihydro-1,3-benzothiazol-7-yl)ethyl]amino}ethyl)-β-alaninamide bis-trifluoroacetic acid salt], the “β2 Int Act” value is on record as 0.73. In addition, the EC50 under setting [1] was 10 nM.

`CC(C)(C)CN(CCNCCc1ccc(O)c2[nH]c(=O)sc12)C(=O)CCNCCc1ccc(Cl)c(Cl)c1` [Example 9, N^3-[2-(3,4-Dichlorophenyl)ethyl]-N-(2,2-dimethylpropyl)-N-(2-{[2-(4-hydroxy-2-oxo-2,3-dihydro-1,3-benzothiazol-7-yl)ethyl]amino}ethyl)-β-alaninamide bis-trifluoroacetic acid salt]: the “β2 Int Act” value was found to be 0.65. For the same compound, the EC50 under setting [1] was 7.94 nM.

Regarding `C[C@H](CNCCC(=O)N(CCNCCc1ccc(O)c2[nH]c(=O)sc12)CC(C)(C)C)c1ccccc1` [Example 11, N-(2,2-Dimethylpropyl)-N-(2-{[2-(4-hydroxy-2-oxo-2,3-dihydro-1,3-benzothiazol-7-yl)ethyl]amino}ethyl)-N^3-[(2S)-2-phenylpropyl]-β-alaninamide bis-trifluoroacetic acid salt], the “β2 Int Act” value is 0.84. The EC50 under setting [1] was 15.8 nM.

On to `O=C(CCNCCc1cccc(Cl)c1)N(CCNCCc1ccc(O)c2[nH]c(=O)sc12)C1CCCCC1` [Example 12, N^3-[2-(3-Chlorophenyl)ethyl]-N-cyclohexyl-N-(2-{[2-(4-hydroxy-2-oxo-2,3-dihydro-1,3-benzothiazol-7-yl)ethyl]amino}ethyl)-β-alaninamide bis-trifluoroacetic acid salt], for which the “β2 Int Act” value was found to be 0.87. The EC50 under setting [1] is 2.51 nM.

Consider `O=C(CCNCCc1ccc(Cl)cc1)N(CCNCCc1ccc(O)c2[nH]c(=O)sc12)C1CCCCC1` [Example 13, N^3-[2-(4-Chlorophenyl)ethyl]-N-cyclohexyl-N-(2-{[2-(4-hydroxy-2-oxo-2,3-dihydro-1,3-benzothiazol-7-yl)ethyl]amino}ethyl)-β-alaninamide bis-trifluoroacetic acid salt], for which the “β2 Int Act” value stood at 0.71. Moreover, the EC50 under setting [1] is 5.01 nM.

Regarding `Cc1cccc(CCNCCC(=O)N(CCNCCc2ccc(O)c3[nH]c(=O)sc23)C2CCCCC2)c1` [Example 14, N-Cyclohexyl-N-(2-{[2-(4-hydroxy-2-oxo-2,3-dihydro-1,3-benzothiazol-7-yl)ethyl]amino}ethyl)-N^3-[2-(3-methylphenyl)ethyl]-β-alaninamide bis-trifluoroacetic acid salt], the “β2 Int Act” value is 0.84. The EC50 under setting [1] is 3.98 nM.

Regarding `O=C(CCNCCc1cccc(F)c1)N(CCNCCc1ccc(O)c2[nH]c(=O)sc12)C1CCCCC1` [Example 15, N-Cyclohexyl-N^3-[2-(3-fluorophenyl)ethyl]-N-(2-{[2-(4-hydroxy-2-oxo-2,3-dihydro-1,3-benzothiazol-7-yl)ethyl]amino}ethyl)-β-alaninamide bis-trifluoroacetic acid salt], the “β2 pEC50” value under setting [1] was found to be 8.6.

Consider `O=C(CCNCCc1ccc(F)cc1)N(CCNCCc1ccc(O)c2[nH]c(=O)sc12)C1CCCCC1` [Example 16, N-Cyclohexyl-N^3-[2-(4-fluorophenyl)ethyl]-N-(2-{[2-(4-hydroxy-2-oxo-2,3-dihydro-1,3-benzothiazol-7-yl)ethyl]amino}ethyl)-β-alaninamide bis-trifluoroacetic acid salt], for which the “β2 Int Act” value worked out at 0.91. Besides, the EC50 under setting [1] is 3.98 nM.

In the case of `O=C(CCNCCc1ccccc1Cl)N(CCNCCc1ccc(O)c2[nH]c(=O)sc12)C1CCCCC1` [Example 17, N^3-[2-(2-Chlorophenyl)ethyl]-N-cyclohexyl-N-(2-{[2-(4-hydroxy-2-oxo-2,3-dihydro-1,3-benzothiazol-7-yl)ethyl]amino}ethyl)-β-alaninamide bis-trifluoroacetic salt], the “β2 Int Act” value is listed as 0.90. For the same compound, the EC50 under setting [1] is 1.58 nM.

For `O=C(CCNCCc1cccc(Cl)c1)N(CCNCCc1ccc(O)c2[nH]c(=O)sc12)C1CCOCC1` [Example 22, N^3-[2-(3-Chlorophenyl)ethyl]-N-(2-{[2-(4-hydroxy-2-oxo-2,3-dihydro-1,3-benzothiazol-7-yl)ethyl]amino}ethyl)-N-(tetrahydro-2H-pyran-4-yl)-β-alaninamide bis-trifluoroacetic acid salt], the “β2 Int Act” value is recorded as 0.96. Under setting [1], the EC50 is 2.51 nM.

As to `O=C(CCNCCc1ccccc1)N(CCNCCc1ccc(O)c2[nH]c(=O)sc12)C1CCCCCC1` [Example 23, N-Cycloheptyl-N-(2-{[2-(4-hydroxy-2-oxo-2,3-dihydro-1,3-benzothiazol-7-yl)ethyl]amino}ethyl)-N^3-(2-phenylethyl)-β-alaninamide bis-trifluoroacetic acid salt], the “β2 Int Act” value is given as 0.85. The EC50 under setting [1] is 1 nM.

As to `O=C(CCNCCc1ccc(Cl)c(Cl)c1)N(CCNCCc1ccc(O)c2[nH]c(=O)sc12)C1CCOCC1` [Example 24, N^3-[2-(3,4-Dichlorophenyl)ethyl]-N-(2-{[2-(4-hydroxy-2-oxo-2,3-dihydro-1,3-benzothiazol-7-yl)ethyl]amino}ethyl)-N-(tetrahydro-2H-pyran-4-yl)-β-alaninamide bis-trifluoroacetic acid salt], the “β2 Int Act” value is on record as 0.77. Besides, the EC50 under setting [1] was 7.94 nM.

Turning to `Cc1cccc(CCNCCC(=O)N(CCNCCc2ccc(O)c3[nH]c(=O)sc23)C2CCOCC2)c1` [Example 25, N-(2-{[2-(4-Hydroxy-2-oxo-2,3-dihydro-1,3-benzothiazol-7-yl)ethyl]amino}ethyl)-N^3-[2-(3-methylphenyl)ethyl]-N-(tetrahydro-2H-pyran-4-yl)-β-alaninamide bis-trifluoroacetic acid salt], the “β2 Int Act” value was 1.05. In addition, the EC50 under setting [1] is 7.94 nM.

`O=C(CCNCCc1ccc(Cl)cc1)N(CCNCCc1ccc(O)c2[nH]c(=O)sc12)C1CCOCC1` [Example 26, N^3-[2-(4-Chlorophenyl)ethyl]-N-(2-{[2-(4-hydroxy-2-oxo-2,3-dihydro-1,3-benzothiazol-7-yl)ethyl]amino}ethyl)-N-(tetrahydro-2H-pyran-4-yl)-β-alaninamide bis-trifluoroacetic acid salt]: the “β2 Int Act” value stood at 0.83. Further, under setting [1], the EC50 was 7.94 nM.

For the compound `Cc1ccccc1CCNCCC(=O)N(CCNCCc1ccc(O)c2[nH]c(=O)sc12)C1CCOCC1` [Example 27, N-(2-{[2-(4-Hydroxy-2-oxo-2,3-dihydro-1,3-benzothiazol-7-yl)ethyl]amino}ethyl)-N^3-[2-(2-methylphenyl)ethyl]-N-(tetrahydro-2H-pyran-4-yl)-β-alaninamide bis-trifluoroacetic acid salt], the “β2 Int Act” value is given as 0.95. Under setting [1], the EC50 is 10 nM.
